The values below come from patent US10736877B2, “Tryptamine-based ship inhibitors for the treatment of cancer” (THE RESEARCH FOUNDATION FOR THE STATE UNIVERSITY OF NEW YORK, priority 2015, dated 2020).

For one series, the system named is SHIP1. The experiment in a line: Malachite green phosphatase release assay, SHIP1. The note with it: for SHIP1 Inhibition: Malachite green assay at 1mM.
A further series deals with SHIP2. The experiment in a line: Malachite green phosphatase release assay, SHIP2. It is filed as biochemical, human. The note with it: for SHIP2 Inhibition: Malachite green assay at 1mM. The source says: Detection of phosphatase enzymatic activity.
Another series deals with breast cancer cells. The note with it: cited from earlier work.
For another series, the system named is CACO-2. The experiment in a line: MTT cell viability assay, CACO-2. It is filed as cell-based. The note with it: for cell viability (MTT): CACO-2.
For the next series, the system named is HCT116. Put plainly: MTT cell viability assay, HCT116. Type of series: cell-based. To be noted: for cell viability (MTT): HCT116.
The subject of series [1] is PKB, pS6 and ERK phosphorylation in CACO-2 cells. The experiment in a line: Western blotting of signaling, CACO-2 cells. Type of series: cell-based, human. The note with it: CACO-2, serum starved; K149 10 μM 1 h, LY2940002 20 μM 1 h, EGF 10 ng/mL 15 minutes. The method, then:
(§1) Western blotting. HCT116 and CACO-2 cells were serum starved by incubating for 2 h, after which cells were stimulated for 15 minutes with EGF (10 ng/mL), or stimulated for 1 h with LY2940002 (20 μM) or SHIP2 inhibitor K149 (10 μM). Subsequently, cells were washed with PBS and lysed on ice in 300 μL 2× concentrated Laemmli buffer (100 mM Tris-HCl (pH 6.8), 200 mM dithiothreitol, 4% SDS, 0.1% bromophenol blue, 20% glycerol, and 2% DTT) and boiled for 5 minutes at 95° C. Cell extracts were resolved by SDS-PAGE and transferred to polyvinylidene difluoride membranes (Merck chemicals BV, Amsterdam, the Netherlands). Membranes were blocked in 50% odyssey blocking buffer (LI-COR Biosciences, Lincoln, Nebr.) in PBS/0.05% Tween-20 and incubated overnight at 4° C. with primary antibody. After washing in PBS-T, membranes were incubated with IRDye® antibodies (LI-COR Biosciences, Lincoln, Nebr.) for 1 h. Detection was performed using Odyssey reader and analyzed using manufacturers software.

The subject of series [2] is PKB, pS6 and ERK phosphorylation in HCT116 cells. The experiment in a line: Western blotting of signaling, HCT116 cells. It is filed as cell-based, human. To be noted: HCT116, serum starved; K149 10 μM 1 h, LY2940002 20 μM 1 h, EGF 10 ng/mL 15 minutes. The method, then:
as §1

The subject of series [3] is HCT116, RKO, LS-174T, CACO-2 and COLO 320. The experiment in a line: Cell viability in colorectal cancer cell lines with and without PI3K mutations. The note with it: 3 cell lines with PIK3CA mutation, 2 without.
Description: Cell lines. […] Colorectal cancer cell lines HCT116 CACO-2, COLO 320, and RKO were cultured in Dulbecco's Modified Eagles Medium (DMEM, Lonza, Basel, Switzerland). […] All cell culture media were supplemented with 100 U/mL penicillin, 100 mg/mL streptomycin (Life technologies, Bleiswijk, NL) and 10% Fecal Calf Serum (FCS, Sigma-Aldrich, St. Louis, USA). Cells were maintained at 37° C. in a 5% CO2 humidified setting.
Cell viability assay. Cell viability was assessed using MTT assays. Cells were incubated with different concentrations of SHIP2 inhibitors, and/or chemotherapeutic agent 5-FU. 24 h, 48 h, 72 h, and 96 h after incubation cells were incubated with 5 mM MTT (3-(4,5-Dimethylthiazol-2-yl)-2,5-diphenyltetrazolium bromide) for 3 h and colorimetric changes were measured using a microplate reader (Model 680XR Bio-Rad) at 490 and 595 nm.
The subject of another series is MDA-MB-231. Put plainly: Cell growth, MDA-MB-231 breast cancer cell line. To be noted: MDA-MB-231, increasing concentrations, compared with K103.
In the next series the test system is K562. The experiment in a line: Cell growth, K562 leukemia cell line. To be noted: K562, increasing concentrations, compared with K103.
For series [4], the system named is MDSC, iTreg cells, nTreg cells, neutrophils. Put plainly: Immune cell numbers and frequencies by flow cytometry in dosed mice. Type of series: in vivo. To be noted: 10 mg/kg in 5% DMSO for 6 days. The method, then: Mice were dosed for 6 days with […]
The next series concerns MCF-7. The experiment in a line: Cell growth, MCF-7 breast cancer cell line. The note with it: MCF-7, increasing concentrations, compared with K103.
In a further series the test system is OPM2. The experiment in a line: Cell growth, OPM2 multiple myeloma cell line. The note with it: OPM2, increasing concentrations, compared with K103.
Series [5] is described as follows: High fat diet (diet-induced obese) mice: weight, bone health, toxicity. The note with it: HFD mice, 2× week, i.p., 10 mg/kg, two weeks.

“Also recorded” adds a separate entry of the source.

Description for K562: (§2) Cells were treated in triplicate or more with increasing concentrations of compounds.
(§3) All cell culture media were supplemented with 100 U/mL penicillin, 100 mg/mL streptomycin (Life technologies, Bleiswijk, NL) and 10% Fecal Calf Serum (FCS, Sigma-Aldrich, St. Louis, USA). Cells were maintained at 37° C. in a 5% CO2 humidified setting.
Description for MCF-7: as §2, §3
Description for MDA-MB-231: as §2, §3
Description for OPM2: as §2, §3
Description for SHIP1: Compounds were dissolved in 100% DMSO and then diluted to indicate final concentrations of performed assays (5% DMSO final concentration).
For this purpose, OPM2 cells were lysed in IP-lysis buffer (20 mM Tris, 150 mM NaCl, 1 mM EDTA, 1 mM EGTA, 1% Triton X100, 1 mM PMSF, Halt protease inhibitor), and SHIP1 or OCRL were immuno-precipitated using mouse IgG antibodies from Santa Cruz Biotechnology (Santa Cruz, Calif.). Beads were washed four times with IP lysis buffer and once with TBS/MgCl2 (10 mM) and resuspended in TBS/MgCl2. SHIP inhibitors (200 μM) were added to the beads for 5 minutes, after which immunoprecipitated SHIP1 was incubated in the presence of 100 μM PtdIns(3,4,5)P3 (Echelon Biosciences, Salt Lake City, Utah), whereas immunoprecipitated OCRL was incubated in the presence of 100 μM PtdIns(4,5)P2 for 30 minutes. Malachite green solution was added according to manufacturer's instructions, and the plate was read after 20 minutes.

For `Cc1c(CCN)c2ccccc2n1Cc1ccccc1Cl.Cl` [Compound K124, 2-[1-(2-chlorobenzyl)-2-methyl-5-1H-3-yl] ethanaminium chloride], the “SHIP1 Inhibition” value with SHIP1 is 62%. Besides, the “SHIP2 Inhibition” value in the series with SHIP2 is given as 70%.
With `Cc1c(CCN)c2cc(Br)ccc2n1Cc1ccccc1Cl.Cl` [Compound K148, 2-[1-(2-chlorobenzyl)-2-methyl-5-(bromo)-1H-3-yl] ethanaminium chloride], the “SHIP1 Inhibition” value with SHIP1 was found to be 77%. In addition, in the series on SHIP2, the “SHIP2 Inhibition” value worked out at 70%.
Take `CSc1ccc2c(c1)c(CCN)c(C)n2Cc1ccc(Cl)cc1.Cl` [Compound K103, reference compound]: the SHIP2 activity entry in the series on SHIP2 (recombinant SHIP2, 500 uM, vs vehicle control (DMSO), FIG. 5) was “inhibition of the SHIP2 activity”. Besides, the “killing breast cancer cells” value with breast cancer cells is recorded as “effective in killing breast cancer cells”. Also, the “cell viability (MTT)” value with CACO-2 (hydrochloride) is given as “dose-dependent reduction in cell viability; also recorded: dose-dependent cell death”; in the series on HCT116 (hydrochloride), “dose-dependent reduction in cell viability; also recorded: induced cell death at lower concentrations in HCT116 cells than CACO-2 cells; also recorded: dose-dependent cell death”.
The compound `CSc1ccc2c(c1)c(CCN)c(C)n2Cc1ccc(Cl)cc1.Cl` [Compound K160, 2-[1-(4-chlorobenzyl)-2-methyl-5-(methylmercapto)-1H-3-yl] ethanaminium chloride] returned a melting point of 198 to 209 °C. In the series on SHIP1, the “SHIP1 Inhibition” value was found to be 78%. Further, in the series on SHIP2, the “SHIP2 Inhibition” value is 61%.
As for `Cc1c(CCN)c2ccccc2n1Cc1ccccc1.Cl` [Compound K123, 2-[1-benzyl-2-methyl-5-1H-3-yl] ethanaminium chloride], the melting point lay in the range of 158 to 161 °C. In the series on SHIP1, the “SHIP1 Inhibition” value was 15%.
With “EGF: Epidermal Growth Factor, used to stimulate cellular signaling [reference compound]”, in series [1], the ERK phosphorylation entry is “increased”, the PKB phosphorylation result is recorded as “increased” and the pS6 phosphorylation entry is recorded as “increased”. In [2], the ERK phosphorylation result is “increased”, the PKB phosphorylation entry is given as “increased” and the pS6 phosphorylation result is “increased”.
With `CSc1ccc2c(c1)c(CCN)c(C)n2Cc1ccccc1.Cl` [Compound K125, 2-[1-benzyl-2-methyl-5-(methylmercapto)-1H-3-yl] ethanaminium chloride], the melting point is 178 to 189 °C. In addition, the “SHIP1 Inhibition” value with SHIP1 amounted to 64%. The “SHIP2 Inhibition” value in the series on SHIP2 turned out to be 80%.
In the case of `Cc1c(CCN)c2ccccc2n1Cc1ccccc1Cl.Cl`, the melting point was in the range of 161 to 169 °C.
With `CSc1ccc2c(c1)c(CCN)c(C)n2Cc1ccc(Cl)cc1Cl.Cl` [Compound K149, 2-[1-(2,4-dichlorobenzyl)-2-methyl-5-(methylmercapto)-1H-3-yl] ethanaminium chloride], the “effects compared to K103” value in the series with SHIP1 (FIG. 1A-C, FIG. 1C is recombinant human tSHIP1) is “superior effects compared to K103”. Also, in the series with SHIP1, the “SHIP1 Inhibition” value is 81%. Further, in the series on CACO-2, the “cell viability (MTT)” value is recorded as “dose-dependent reduction in cell viability; also recorded: more sensitive to the K149 inhibitor; also recorded: dose-dependent cell death”. The “5-FU-induced cell death with SHIP2 inhibitor co-treatment” value in the series on CACO-2 (CACO-2, K149 2 uM with increasing concentrations of 5-FU) was “sensitizes CRC cells to the 5-FU treatment; also recorded: enhanced”. Moreover, the “sensitivity by PI3K (PIK3CA) mutational status” value in series [3] was “no difference in sensitivity to SHIP2 inhibition based on PIK3CA mutational status; also recorded: No relationship between SHIP2 inhibition and PI3K mutational status exists”. In series [1], the ERK phosphorylation result was “not affected by either inhibitor; also recorded: affected by neither inhibitor”, the PKB phosphorylation entry is on record as “diminished; also recorded: decreased” and the pS6 phosphorylation entry was “drastically increased”. Further, in the series on MDA-MB-231, the “control of cancer cell growth” value is “more effective at controlling cancer cell growth”. In addition, in [2], the ERK phosphorylation result is reported as “not affected by either inhibitor; also recorded: affected by neither inhibitor”, the PKB phosphorylation entry was “diminished; also recorded: decreased” and the pS6 phosphorylation entry is given as “drastically increased”. Further, the “control of cancer cell growth” value in the series on K562 is “more effective at controlling cancer cell growth”. For the same compound, the “cell viability (MTT)” value in the series on HCT116 is “dose-dependent reduction in cell viability; also recorded: more sensitive to the K149 inhibitor; also recorded: induced cell death at lower concentrations in HCT116 cells than CACO-2 cells; also recorded: dose-dependent cell death”. In addition, the “5-FU-induced cell death with SHIP2 inhibitor co-treatment” value in the series with HCT116 (HCT116, K149 2 uM with increasing concentrations of 5-FU) was “sensitizes CRC cells to the 5-FU treatment; also recorded: enhanced”. Also, in [4], the MDSC counts entry was “significant increases”, the iTreg cell counts entry was “significant increases”, the nTreg cell counts result was “significant increases” and the neutrophil counts entry was “significant increases”. Besides, the “control of cancer cell growth” value in the series on MCF-7 is recorded as “more effective at controlling cancer cell growth”. The “control of cancer cell growth” value with OPM2 is “more effective at controlling cancer cell growth”. In series [5], the “% body weight” value is “significant reductions”, the total weight entry was “significant reductions; also recorded: promotes weight loss” and the toxicity result was “No toxicity was observed”. In [5] (DEXA), the “bone mineral content (BMC)” value is reported as “no significant reduction or increase” and the “bone mineral density (BMD)” value is listed as “no significant reduction or increase”.
